# Data from patent US11446282B2, “Methods of treating mixed dyslipidemia and hypertriglycertdemia” (Kowa Company, Ltd., priority 2017, dated 2022).
# Legend:
# [1] = system: major drug metabolizing enzymes in the liver; assay: Inhibition of major drug metabolizing enzymes in the liver; assay type: in vitro ADME
# [2] = system: organic anion-transporting polypeptide (OATP); assay: Drug-drug interaction with strong OATP inhibitors
compound,measurement,setting,value
"CC[C@@H](Oc1cccc(CN(CCCOc2ccc(OC)cc2)c2nc3ccccc3o2)c1)C(=O)O [Pemafibrate, (2R)-2-[3-({1,3-benzoxazol-2-yl[3-(4-methoxyphenoxy)propyl]amino}methyl)phenoxy]butanoic acid]",inhibitory effects on major drug metabolizing enzymes in the liver,[1],minimal
same,"interaction with strong OATP inhibitors (e.g., cyclosporine and rifampin)",[2],interact
